Test results reported in ChEMBL document CHEMBL5303709, “ECBD screening data for assay EOS300041” (2022).
Peptide text beside a SMILES is read from it. * marks the point of attachment. Cbz = O=C(OCc1ccccc1)*

Target: Replicase polyprotein 1ab (Severe acute respiratory syndrome coronavirus 2) (UniProt P0DTD1)
Assay: Inhibition of SARS-CoV-2 3CL-Pro proteolytic cleavage of a dual-labeled substrate by FRET.
Format: functional
Set-up: assay stage

Compound	IC50 relative
CCN1CCN(C(c2ccc(C(F)(F)F)cc2)c2ccc3cccnc3c2O)CC1 (configuration not stated)	0.152 µM
[O-][n+]1ccccc1S	0.0487 µM
O=C(NC(=S)N1CCCc2ccccc21)c1ccccc1	> 20 µM
S=C=NCc1ccccc1	> 20 µM
Sc1nnc(Nc2ccccc2)s1	0.39 µM
CCOC(=O)c1c(N)sc(-c2ccccc2)c1C	3.28 µM
Cn1sc(=O)n(Cc2ccccc2)c1=O	< 0.02 µM
COc1ccc2[nH]c([S+]([O-])Cc3ncc(C)c(OC)c3C)nc2c1 (configuration not stated)	> 20 µM
Cc1ccc(S(=O)(=O)N[C@@H](Cc2ccccc2)C(=O)CCl)cc1	1.37 µM
COc1ccc2[nH]c3c(S)ncnc3c2c1	> 20 µM
O=C(CCl)c1ccccc1	0.19 µM
S=C=Nc1cccc(NC(=S)NCCCCNC(=S)Nc2cccc(N=C=S)c2)c1	> 20 µM
Cc1ccc(-n2sc(=O)n(Cc3ccc(F)cc3)c2=O)cc1	< 0.02 µM
CC(Cc1ccc(O)c(O)c1)C(C)Cc1ccc(O)c(O)c1 (configuration not stated)	> 20 µM
O=c1c2ccccc2sn1-c1ccccc1	< 0.02 µM
COc1ccnc(C[S+]([O-])c2nc3cc(OC(F)F)ccc3[nH]2)c1OC (configuration not stated)	> 20 µM
Cc1cc(-c2ccc(/C=C3/S/C(=N\c4ccc(Cl)c(C(=O)O)c4)NC3=O)o2)c([N+](=O)[O-])cc1C	> 20 µM
O=c1cc(-c2ccccc2)oc2cc(O)c(O)c(O)c12	> 20 µM
CC1=CC(=O)c2ccccc2C1=O	> 20 µM
Cc1ccc(C)c(-n2sc3cc(F)ccc3c2=O)c1	< 0.02 µM
Sc1nnc(-c2ccccc2Cl)o1	> 20 µM
CCOc1cc(C(Nc2cc(C)ccn2)c2ccc3cccnc3c2O)ccc1OC (configuration not stated)	0.269 µM
CCN(CC)S(=O)(=O)c1cccc(-n2sc3ccccc3c2=O)c1	< 0.02 µM
O=c1c(O)cccc2cc(O)c(O)c(O)c12	6.98 µM
NC(Cc1cc(O)c(O)cc1O)C(=O)O (racemic)	> 20 µM
COC(=O)CC[C@H](NC(=O)[C@H](CC(=O)OC)NC(=O)OCc1ccccc1)C(=O)N[C@H](C(=O)N[C@@H](CC(=O)OC)C(=O)CF)C(C)C	< 0.02 µM

Compound	IC50 relative
O=C(c1cccs1)c1no[n+]([O-])c1C(=O)c1cccs1	11 µM
Cc1c(-c2ccc(N3CCc4cccc(C(=O)Nc5nc6ccccc6s5)c4C3)nc2C(=O)O)cnn1CC12CC3CC(CC(C3)C1)C2	> 20 µM
COc1cc(N(C)C)cc(CN(C)CCc2ccc([N+](=O)[O-])cc2)c1O	6.09 µM
Nc1ccc(O)c2ncccc12	2.05 µM
O=[N+]([O-])c1ccc(Sc2cccc[n+]2[O-])c2nonc12	< 0.02 µM
O=C1C(Cl)=C(Cl)C(=O)C(Cl)=C1Cl	< 0.02 µM
CN1CCN(C(=O)c2ccc(-c3ccc4c(C=O)c(O)ccc4c3)s2)CC1	1.94 µM
CC(C)C[C@@H](C=O)NC(=O)[C@H](CC(C)C)NC(=O)[C@H](CC(C)C)NC(=O)OCc1ccccc1 (Cbz-Leu-Leu-Leu-aldehyde)	> 20 µM
C[C@H]1COC2=C1C(=O)C(=O)c1c2ccc2c1CCCC2(C)C	> 20 µM
O=C(O)C1=CC(=C(c2ccc(O)c(C(=O)O)c2)c2ccc(O)c(C(=O)O)c2)C=CC1=O	> 20 µM
Sc1nnnn1-c1ccccc1	2.36 µM
Oc1cc2c(cc1C(c1ccc(C(F)(F)F)cc1)N1CCOCC1)OCO2 (configuration not stated)	0.545 µM
O=C(c1ccc(Cl)cc1)c1cc([N+](=O)[O-])ccc1N1CCOCC1	> 20 µM
COc1ccc2[nH]c(S)nc2c1	> 20 µM
CC(C)(C)OC(=O)NCCc1nnc(S(=O)(=O)Cc2ccc(Cl)cc2Cl)o1	4.22 µM
COc1ncc(-c2ccc3nccc(-c4ccnnc4)c3c2)cc1NS(=O)(=O)c1ccc(F)cc1F	> 20 µM
CCN(CC)C(=S)S	> 20 µM
O=C(O)[C@@H](S)[C@@H](S)C(=O)O	6.74 µM
O=C(Nc1ccccc1)Nc1ccc(-c2ccc(C(=O)[C@@H]3CCC[C@H]3C(=O)O)cc2)cc1	> 20 µM
Nc1nc(S)c2ncn(C3OC(CO)C(O)C3O)c2n1 (configuration not stated)	1.07 µM
O=C(/C=C/c1ccc2ccccc2n1)c1ccncc1	> 20 µM
CN(C)S(=O)(=O)c1cccc(-n2sc3ccccc3c2=O)c1	< 0.02 µM
Cc1ccc(-n2sc3ccccc3c2=O)cc1	< 0.02 µM
O=C(O)c1c(Cl)c(Cl)c(Cl)c(Cl)c1-c1c2cc(I)c(=O)c(I)c-2oc2c(I)c(O)c(I)cc12	> 20 µM
CCCCn1c(NC(=O)c2cccs2)c(C#N)c2nc3ccccc3nc21	> 20 µM
Cc1cc(-c2ccc(/N=N/c3ccc4c(S(=O)(=O)O)cc(S(=O)(=O)O)c(N)c4c3O)c(C)c2)ccc1/N=N/c1ccc2c(S(=O)(=O)O)cc(S(=O)(=O)O)c(N)c2c1O	> 20 µM
